Results on eight molecules are retold here after patent US11566030B2, “Substituted 2,6-dihydropyrrolo[3,4-c]pyrazoles as pyruvate kinase activators” (priority 2021, dated 2023).

Structures are written as SMILES. Read-outs that look alike come from different tables or passages of the source.

Broadly, the AC50 is the concentration giving half of the maximal activity seen. Lower therefore signals greater potency.

In test [1] the test system is mouse model of beta-thalassemia. Particulars: cited from earlier work.
For test [2], the target named is T1, Human pyruvate kinase R (PKR) (Homo sapiens, UniProt P30613).
T1 construct: Human pyruvate kinase R (PKR), residues 14-574; 6xHis-8xArg-SUMO (N, cleaved yes); host or cells: E. coli
T1 sequence (P30613 14-574): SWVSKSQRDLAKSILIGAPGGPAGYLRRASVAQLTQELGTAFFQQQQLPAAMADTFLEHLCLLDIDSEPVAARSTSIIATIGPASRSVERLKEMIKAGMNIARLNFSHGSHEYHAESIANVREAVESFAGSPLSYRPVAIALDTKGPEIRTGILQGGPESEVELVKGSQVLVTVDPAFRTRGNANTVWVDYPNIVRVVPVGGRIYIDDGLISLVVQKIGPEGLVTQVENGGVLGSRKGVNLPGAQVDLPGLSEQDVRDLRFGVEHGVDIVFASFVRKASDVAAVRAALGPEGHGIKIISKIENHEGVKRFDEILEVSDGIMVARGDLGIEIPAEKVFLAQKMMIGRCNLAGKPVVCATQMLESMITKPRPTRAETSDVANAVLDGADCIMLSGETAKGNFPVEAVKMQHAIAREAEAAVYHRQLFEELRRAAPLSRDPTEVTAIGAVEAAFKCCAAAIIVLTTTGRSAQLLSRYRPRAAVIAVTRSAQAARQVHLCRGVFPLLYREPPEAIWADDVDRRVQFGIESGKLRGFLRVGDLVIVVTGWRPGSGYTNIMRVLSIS
Nature of the test: Biochemical assay for activation of pyruvate kinase R (Kinase-Glo luminescence, ATP generation). Particulars: for Emax: read-out: PKR % activation, maximal activation level achieved with each compound relative to the activation level achieved by AG-348 @ 10 μM. The procedure, abridged:
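Recombinant human PKR (residues 14-574) expressed in E. coli with His-Arg-SUMO tag, tag cleaved, purified by Ni-NTA, anion exchange and size exclusion. Activation read as ATP generation by Kinase-Glo luminescence.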
A general note: Kinase-Glo measures the ATP left after a reaction by luminescence.

Where [3] appears, read: PKR AC50 (nM), 0.1 nM PKR, 0.3 mM ADP, 0.1 mM PEP, 1% DMSO.

As for `O=C(c1ccc(NS(=O)(=O)c2cccc3cccnc23)cc1)N1CCN(CC2CC2)CC1` [AG-348, Mitapivat], in test [1], the ATP levels entry is recorded as “increased”, the PK activity entry is “increased” and the RBC parameters entry was “improved”.
`O=C([C@H](CO)c1ccccc1)N1Cc2cn(S(=O)(=O)c3cnn(C(F)F)c3)nc2C1` [Compound 116, (2S)-1-(2-{[1-(difluoromethyl)-1H-pyrazol-4-yl]sulfonyl}-2H,4H,5H,6H-pyrrolo[3,4-c]pyrazol-5-yl)-3-hydroxy-2-phenylpropan-1-one] had an AC50 in test [2] (setting [3]) of 34 nM. Further, in test [2], the Emax came to 53%.
The like results for `O=C([C@H](CO)c1ccccc1)N1Cc2cn(S(=O)(=O)c3csc(C(F)(F)F)c3)nc2C1` [Compound 117, (2S)-3-hydroxy-2-phenyl-1-(2-{[5-(trifluoromethyl)thiophen-3-yl]sulfonyl}-2H,4H,5H,6H-pyrrolo[3,4-c]pyrazol-5-yl)propan-1-one] were, in that order, 22 nM and 35%.
Consider `O=C([C@H](CO)c1ccccc1)N1Cc2cn(S(=O)(=O)c3c[nH]c(C(F)(F)F)c3)nc2C1` [Compound 118, (2S)-3-hydroxy-2-phenyl-1-(2-{[5-(trifluoromethyl)-1H-pyrrol-3-yl]sulfonyl}-2H,4H,5H,6H-pyrrolo[3,4-c]pyrazol-5-yl)propan-1-one], for which, in test [2], half-maximal activity (AC50) was put at 160 nM and the Emax was 13%.
The like results for `CCOc1ncc(S(=O)(=O)n2cc3c(n2)CN(C(=O)[C@H](CO)c2ccccc2)C3)s1` [Compound 119, (2S)-1-{2-[(2-ethoxy-1,3-thiazol-5-yl)sulfonyl]-2H,4H,5H,6H-pyrrolo[3,4-c]pyrazol-5-yl}-3-hydroxy-2-phenylpropan-1-one] were, in that order, 54 nM and 58%.
On the same counts, the results for `COc1ccccc1[C@@H](CO)C(=O)N1Cc2cn(S(=O)(=O)c3cnn(CC(F)F)c3)nc2C1` [Compound 120, (2S)-1-{2-[1-(2,2-difluoroethyl)pyrazol-4-ylsulfonyl]-4H,6H-pyrrolo[3,4-c]pyrazol-5-yl}-3-hydroxy-2-(2-methoxyphenyl)propan-1-one] are 16 nM and 102%.
In the case of `COc1ccccc1[C@H](CO)C(=O)N1Cc2cn(S(=O)(=O)c3cnn(CC(F)F)c3)nc2C1` [Compound 121, (2R)-1-{2-[1-(2,2-difluoroethyl)pyrazol-4-ylsulfonyl]-4H,6H-pyrrolo[3,4-c]pyrazol-5-yl}-3-hydroxy-2-(2-methoxyphenyl)propan-1-one], in test [2], the AC50 was 98 nM and the Emax was found to be 166%.
In test [2] (setting [3]), `O=C([C@@H](CO)c1ccccc1)N1Cc2cn(S(=O)(=O)c3cnn(CC(F)F)c3)nc2C1` [Compound 122, (2R)-1-(2-{[1-(2,2-difluoroethyl)-1H-pyrazol-4-yl]sulfonyl}-2H,4H,5H,6H-pyrrolo[3,4-c]pyrazol-5-yl)-3-hydroxy-2-phenylpropan-1-one] gave an AC50 of 240 nM. Also, the Emax in test [2] came out at 120%.
